According to ChEMBL document CHEMBL1201862, “PubChem BioAssay data set” (2004):
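Cells were grown in 96-well plates and exposed to each compound for 48 hours at five concentrations; endpoints were interpolated linearly between bracketing concentrations, or set to the highest concentration if not reached. Here, GI50 denotes the concentration required for 50% inhibition of growth.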 The source made the active and inactive calls. No stated cut-off is given here; in the data, active = GI50 up to about 1.1 µM and inactive = higher.

How the values were obtained:
Test in all cases: NCI-60 cell line screen, 48 h
RXF 393 = test system: RXF 393
HOP-62 = test system: HOP-62
MOLT-4 = test system: MOLT-4
A549 = test system: A549
CAKI-1 = test system: CAKI-1
OVCAR-4 = test system: OVCAR-4
KM-20L2 = test system: KM-20L2
Malme-3M = test system: Malme-3M
U-251 = test system: U-251
SK-MEL-28 = test system: SK-MEL-28
HT-29 = test system: HT-29
DMS-114 = test system: DMS-114
M19-MEL = test system: M19-MEL
HCC 2998 = test system: HCC 2998
M14 = test system: M14
CCRF-CEM = test system: CCRF-CEM
SK-MEL-2 = test system: SK-MEL-2
DLD-1 = test system: DLD-1
OVCAR-3 = test system: OVCAR-3
786-0 = test system: 786-0
IGROV-1 = test system: IGROV-1
HCT-15 = test system: HCT-15
LXFL 529 = test system: LXFL 529
HOP-18 = test system: HOP-18
SR = test system: SR
NCI-H226 = test system: NCI-H226
SK-MEL-5 = test system: SK-MEL-5
EKVX = test system: EKVX
SNB-78 = test system: SNB-78
SNB-19 = test system: SNB-19
NCI-H522 = test system: NCI-H522
ACHN = test system: ACHN
SN12C = test system: SN12C
COLO 205 = test system: COLO 205
SF-295 = test system: SF-295
HOP-92 = test system: HOP-92
OVCAR-8 = test system: OVCAR-8
SNB-75 = test system: SNB-75
NCI-H460 = test system: NCI-H460
LOX IMVI = test system: LOX IMVI
OVCAR-5 = test system: OVCAR-5
K562 = test system: K562
UACC-257 = test system: UACC-257
KM12 = test system: KM12
UACC-62 = test system: UACC-62
HCT-116 = test system: HCT-116
SF-268 = test system: SF-268
TK-10 = test system: TK-10
SW-620 = test system: SW-620
HL-60 = test system: HL-60
UO-31 = test system: UO-31
RXF 631 = test system: RXF 631
SF-539 = test system: SF-539
NCI-H23 = test system: NCI-H23
RPMI-8226 = test system: RPMI-8226
SK-OV-3 = test system: SK-OV-3
DMS-273 = test system: DMS-273

`COC[n+]1cc2cc(OC)c(OC)cc2c2ccc3cc(OC)c(OC)cc3c21` was tested, and the GI50 (RXF 393) was > 100 µM (inactive), the GI50 (HOP-62) was > 100 µM (inactive) and the GI50 (MOLT-4) was > 100 µM (inactive). For the same compound, the GI50 (A549) was > 100 µM (inactive), the GI50 (CAKI-1) was > 100 µM (inactive) and the GI50 (OVCAR-4) was > 100 µM (inactive). For the same compound, the GI50 (KM-20L2) was > 100 µM (inactive), the GI50 (Malme-3M) was > 100 µM (inactive) and the GI50 (U-251) was > 100 µM (inactive). The GI50 (SK-MEL-28) was > 100 µM (inactive), the GI50 (HT-29) was > 100 µM (inactive) and the GI50 (DMS-114) was > 100 µM (inactive). The GI50 (M19-MEL) was > 100 µM (inactive), the GI50 (HCC 2998) was > 100 µM (inactive) and the GI50 (M14) was > 100 µM (inactive). For the same compound, the GI50 (CCRF-CEM) was 98.2 µM (inactive), the GI50 (SK-MEL-2) was > 100 µM (inactive) and the GI50 (DLD-1) was > 100 µM (inactive). The GI50 (OVCAR-3) was > 100 µM (inactive), the GI50 (786-0) was > 100 µM (inactive) and the GI50 (IGROV-1) was > 100 µM (inactive). The GI50 (HCT-15) was > 100 µM, the GI50 (LXFL 529) was > 100 µM (inactive) and the GI50 (HOP-18) was > 100 µM (inactive). For the same compound, the GI50 (SR) was > 10 µM (inactive), the GI50 (NCI-H226) was > 100 µM (inactive) and the GI50 (SK-MEL-5) was > 100 µM (inactive). For the same compound, the GI50 (EKVX) was > 100 µM (inactive), the GI50 (SNB-78) was > 100 µM (inactive) and the GI50 (SNB-19) was > 100 µM (inactive). For the same compound, the GI50 (NCI-H522) was > 100 µM (inactive), the GI50 (ACHN) was > 100 µM (inactive) and the GI50 (SN12C) was > 100 µM (inactive). For the same compound, the GI50 (COLO 205) was > 100 µM (inactive), the GI50 (SF-295) was > 100 µM (inactive) and the GI50 (HOP-92) was > 100 µM (inactive). The GI50 (OVCAR-8) was > 100 µM (inactive), the GI50 (SNB-75) was > 100 µM (inactive) and the GI50 (NCI-H460) was > 100 µM (inactive). The GI50 (LOX IMVI) was > 100 µM (inactive), the GI50 (OVCAR-5) was > 100 µM (inactive) and the GI50 (K562) was > 100 µM (inactive). The GI50 (UACC-257) was > 100 µM (inactive), the GI50 (KM12) was > 100 µM (inactive) and the GI50 (UACC-62) was > 100 µM (inactive). For the same compound, the GI50 (HCT-116) was > 100 µM (inactive), the GI50 (SF-268) was > 100 µM (inactive) and the GI50 (TK-10) was > 100 µM (inactive). The GI50 (SW-620) was > 100 µM (inactive), the GI50 (HL-60) was > 100 µM (inactive) and the GI50 (UO-31) was > 100 µM (inactive). For the same compound, the GI50 (RXF 631) was > 100 µM (inactive), the GI50 (SF-539) was > 100 µM (inactive) and the GI50 (NCI-H23) was > 100 µM (inactive). For the same compound, the GI50 (RPMI-8226) was > 100 µM (inactive).

For `COc1cc([C@@H]2c3cc4c(cc3[C@@H](OC(=O)c3ccccc3)C3COC(=O)[C@@H]32)OCO4)cc(OC)c1O` (stereo partly drawn), the GI50 (RXF 393) was 0.0101 µM (active), the GI50 (HOP-62) was 0.0208 µM (active) and the GI50 (MOLT-4) was 0.0413 µM (active). The GI50 (A549) was 0.0132 µM (active), the GI50 (CAKI-1) was < 0.01 µM (active) and the GI50 (OVCAR-4) was 25.9 µM (inactive). The GI50 (KM-20L2) was 0.0128 µM (active), the GI50 (Malme-3M) was < 0.01 µM (active) and the GI50 (U-251) was 0.0143 µM (active). For the same compound, the GI50 (SK-MEL-28) was < 0.01 µM (active), the GI50 (HT-29) was < 0.01 µM (active) and the GI50 (DMS-114) was < 0.01 µM (active). The GI50 (M19-MEL) was < 0.01 µM (active), the GI50 (HCC 2998) was 0.0345 µM (active) and the GI50 (CCRF-CEM) was 0.0304 µM (active). The GI50 (SK-MEL-2) was 0.0104 µM (active), the GI50 (786-0) was 0.0254 µM (active) and the GI50 (IGROV-1) was 0.0123 µM (active). The GI50 (LXFL 529) was < 0.01 µM (active), the GI50 (HOP-18) was > 100 µM (inactive) and the GI50 (SK-OV-3) was < 0.01 µM (active). For the same compound, the GI50 (NCI-H226) was < 0.01 µM (active), the GI50 (SK-MEL-5) was < 0.01 µM (active) and the GI50 (NCI-H522) was < 0.01 µM (active). The GI50 (ACHN) was < 0.01 µM (active), the GI50 (SN12C) was 0.0286 µM (active) and the GI50 (COLO 205) was 0.148 µM (active). For the same compound, the GI50 (SF-295) was < 0.01 µM (active), the GI50 (HOP-92) was < 0.01 µM (active) and the GI50 (OVCAR-8) was < 0.01 µM (active). The GI50 (SNB-75) was < 0.01 µM (active), the GI50 (NCI-H460) was 0.0129 µM (active) and the GI50 (LOX IMVI) was < 0.01 µM (active). The GI50 (OVCAR-5) was 68.9 µM (inactive), the GI50 (K562) was < 0.01 µM (active) and the GI50 (DMS-273) was < 0.01 µM (active). The GI50 (KM12) was < 0.01 µM (active), the GI50 (UACC-62) was < 0.01 µM (active) and the GI50 (HCT-116) was < 0.01 µM (active). For the same compound, the GI50 (SF-268) was 0.0289 µM (active), the GI50 (TK-10) was 38.9 µM (inactive) and the GI50 (SW-620) was < 0.01 µM (active). The GI50 (HL-60) was < 0.01 µM (active), the GI50 (UO-31) was 0.132 µM (active) and the GI50 (RXF 631) was < 0.01 µM (active). For the same compound, the GI50 (SF-539) was < 0.01 µM (active), the GI50 (NCI-H23) was 0.0148 µM (active) and the GI50 (RPMI-8226) was 0.012 µM (active).
